Experimental data from patent US20060069132A1, “Azolecarboxamide herbicides” (priority 2004, published 2006).

Experiments:
morningglory = assay: Test A pre-/postemergence herbicide test; type: in vivo, Ipomoea spp.
Procedure, shortened: (§1)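 Sandy loam soil given preemergence directed spray; plants at 2 to 10 cm, one- to two-leaf stage, sprayed to runoff postemergence, compounds in non-phytotoxic solvent with surfactant. Injury rated visually versus untreated controls after about ten greenhouse days, 0 (no effect) to 100 (complete control); dash means not tested.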

velvetleaf = assay: Test A pre-/postemergence herbicide test; type: in vivo, Abutilon theophrasti
Procedure, shortened: as §1

rice = assay: Test B pre-/postemergence herbicide test; type: in vivo, Oryza sativa; settings: preemergence
Procedure, shortened: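 Response was scored visually 13 to 15 days after treatment against untreated greenhouse controls, 0 meaning no effect and 100 complete control. Formulations (solvent mixture plus surfactant) went onto soil after planting, onto foliage of 1- to 4-leaf plants, and onto 2-leaf plants in a flooded paddy set including rice and barnyardgrass.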

giant foxtail = assay: Test C pre-/postemergence herbicide test; type: in vivo, Setaria faberi; settings: for Foxtail, Giant plant response rating: Preemergence, 500 g ai/ha, scale 0 to 100, 0 no effect, 100 complete control
Procedure, shortened: (§2)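 Preemergence: seeds planted and treated with compound in non-phytotoxic solvent with surfactant; postemergence: plants at 2 to 18 cm (1- to 4-leaf stage) sprayed likewise. Kept in greenhouse 12 to 14 days, then visually rated against controls, 0 (no effect) to 100 (complete control).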

eastern black nightshade = assay: Test C pre-/postemergence herbicide test; type: in vivo, Solanum ptycanthum; settings: for Nightshade plant response rating: Preemergence, 500 g ai/ha, scale 0 to 100, 0 no effect, 100 complete control
Procedure, shortened: as §2

common ragweed = assay: Test C pre-/postemergence herbicide test; type: in vivo, Ambrosia elatior; design: key to Plant response rating, Ragweed: 0 = no effect, 100 = complete control; settings: for Ragweed plant response rating: Preemergence, 500 g ai/ha, scale 0 to 100, 0 no effect, 100 complete control
Procedure, shortened: as §2

[1] = test system: common (oilseed) sunflower; assay: Test C pre-/postemergence herbicide test; type: in vivo, Helianthus annuus; settings: for Sunflower plant response rating: Preemergence, 500 g ai/ha, scale 0 to 100, 0 no effect, 100 complete control
Procedure, shortened: as §2

[2] = Postemergence, 500 g ai/ha, 0 to 100 scale, 0 no effect, 100 complete control
[3] = Postemergence, 2000 g ai/ha, 0 to 100 scale, 0 no effect, 100 complete control
[4] = Preemergence, 500 g ai/ha, visual rating, 0 to 100 scale (0 no effect, 100 complete control)
[5] = Preemergence, 2000 g ai/ha, visual rating, 0 to 100 scale (0 no effect, 100 complete control)
[6] = preemergence, 500 g ai/ha, visual injury, 0 to 100 scale (0 no effect, 100 complete control)
[7] = 500 g ai/ha, visual rating 0-100, 0 no effect, 100 complete control
[8] = 125 g ai/ha, 0 to 100 scale, 0 is no effect, 100 is complete control
[9] = 125 g ai/ha, scale 0 (no effect) to 100 (complete control), visual, 12 to 14 days, preemergence
[10] = 250 g ai/ha, scale 0 to 100 (0 no effect, 100 complete control), visual, 12 to 14 days, preemergence
[11] = 62 g ai/ha, preemergence, scale 0 to 100
[12] = 250 g ai/ha, scale 0-100, preemergence

Structure (SMILES)	Morningglory plant response rating (morningglory; [2])	Plant response rating, Morningglory (morningglory; [3])	Morningglory plant response rating (morningglory; [4])	Morningglory plant response rating (morningglory; [5])	Velvetleaf plant response rating (velvetleaf; [2])	Plant response rating, Velvetleaf (velvetleaf; [3])	Velvetleaf plant response rating (velvetleaf; [5])	Velvetleaf plant response rating (velvetleaf; [6])	Plant response rating, Rice (rice; [7])	Plant response rating, Rice (rice; [8])	Plant response rating, Foxtail, Giant (giant foxtail; [9])	Plant response rating, Foxtail, Giant (giant foxtail; [10])	Foxtail, Giant plant response rating (giant foxtail)	Plant response rating, Nightshade (eastern black nightshade; [9])	Nightshade plant response rating (eastern black nightshade)	Plant response rating, Ragweed (common ragweed; [9])	Ragweed plant response rating (common ragweed)	Plant response rating, Sunflower [1, 9]	Sunflower plant response rating [1]	Plant response rating, Foxtail, Giant (giant foxtail; [11])	other results
CCN(CC)C(=O)c1cccc(NC(=O)c2cc(C(C)(C)C)nn2CC)n1 [Compound 145]	15	30	20	25	30	55	90	75	20	0	0	50	70	70	90	0	20	0	30	–	Plant response rating (0 = no effect, 100 = complete control), Foxtail, Giant (giant foxtail; 62 g ai/ha, preemergence): 0; Plant response rating (0 = no effect, 100 = complete control), Nightshade (eastern black nightshade; 62 g ai/ha, preemergence): 60; Plant response rating (0 = no effect, 100 = complete control), Ragweed (common ragweed; 62 g ai/ha, preemergence): 0; Plant response rating (0 = no effect, 100 = complete control), Sunflower ([1]; 62 g ai/ha, preemergence): 0
CCNC(=O)c1cc(C)nc(NC(=O)c2cc(C(C)(C)C)nn2CC)c1 [Compound 149]	30	60	30	65	30	40	25	0	30	20	50	60	100	80	95	0	5	0	0	0	Plant response rating, Nightshade (eastern black nightshade; [11]): 80; Plant response rating, Ragweed (common ragweed; [11]): 0; Plant response rating, Sunflower [1, 11]: 0
C=CCNC(=O)c1cccc(NC(=O)c2sc(C(C)(C)C)nc2C)c1 [Compound 202]	75	75	–	70	30	30	85	35	30	–	40	–	100	95	100	80	95	0	10	0	Morningglory plant response rating (morningglory; [6]): 15; Rice plant response rating (0 to 100 scale) (rice; 125 g ai/ha, 0 = no effect, 100 = complete control): 10; Plant response rating, Foxtail, Giant (giant foxtail; [12]): 80; Plant response rating, Nightshade (eastern black nightshade; [11]): 20; Plant response rating, Nightshade (eastern black nightshade; [12]): 100; Plant response rating, Ragweed (common ragweed; [11]): 0; Plant response rating, Ragweed (common ragweed; [12]): 95; Plant response rating, Sunflower [1, 11]: 0; Plant response rating, Sunflower [1, 12]: 10
